The values below come from patent publication US7495024B2, “Phenylalkyl N-hydroxyureas for combating atherosclerotic plaque” (VIA Pharmaceuticals, Inc., priority 2006, dated 2009).

For assay [1], the system named is ApoE-deficient mice. Kind of assay: Gross qualitative atherosclerotic lesion analysis of aortas, prevention of plaque formation (Example 1). The assay is classed as in vivo. The following applies: 12-week old ApoE-deficient mice, 28 days. The text has this:
In Examples 1 and 2 knockout mice deficient in producing the protein Apolipoprotein E [apoE] were used. ApoE-deficient mice are known to spontaneously develop atherosclerotic plaque at 12-16 weeks, which process is accelerated by feeding the mice a high fat diet. Because the atherosclerotic lesions found in these mice are histologically similar to those found in humans, the ApoE-deficient mice are used as a model for assessing the effects of a drug on atherosclerotic plaque in humans. This example was carried out on ApoE-deficient knockout mice who were before their normal development of atherosclerotic plaque which occurs in about 12 weeks to determine the effect of compound X i.e. the compound: (N-[3-[5-[(4-fluorophenyl)methyl]-2-thienyl]-1-methyl-2-propynyl]-N-hydroxyurea) on the prevention of plaque formation. Four week old female ApoE knockout mice were fed a high fat diet (21% anhydrous milk fat and 0.15% cholesterol) for a period of eight weeks. […] The results which are given in FIG. 1 were analyzed by one-way analysis of variance (ANOVA) and Student's unpaired t-test comparing each treatment arm to the appropriate control arm.

Assay [2] relates to ApoE-deficient mice. Kind of assay: Gross pathological evaluation of aortas with developed atherosclerotic plaque (Example 2, FIG. 2). The assay is classed as in vivo. To be noted: 28-week old ApoE-deficient mice, 28 days. The source says:
In Examples 1 and 2 knockout mice deficient in producing the protein Apolipoprotein E [apoE] were used. ApoE-deficient mice are known to spontaneously develop atherosclerotic plaque at 12-16 weeks, which process is accelerated by feeding the mice a high fat diet. Because the atherosclerotic lesions found in these mice are histologically similar to those found in humans, the ApoE-deficient mice are used as a model for assessing the effects of a drug on atherosclerotic plaque in humans.
Four week old female ApoE-deficient knockout mice were fed a high-fat diet set forth in Example 1 for a period of 24 weeks to allow atherosclerotic plaque to build-up. […]
The entire treatment was carried out by administering the vehicle or the dosage to the mice once a day for 28 days. […] At terminal sacrifice, aortas were harvested from 16 mice in each of the treatment groups and grossly evaluated, selected tissue from the remaining 4 mice per group were evaluated grossly and fixed and processed for histopathological analysis and quantitative determination of plaque burden. […]

`CC(C#Cc1ccc(Cc2ccc(F)cc2)s1)N(O)C(N)=O` (stereo not shown) [compound X, N-[3-[5-[(4-fluorophenyl)methyl]-2-thienyl]-1-methyl-2-propynyl]-N-hydroxyurea]: the “extent of plaque in the proximal aorta” value in the assay with ApoE-deficient mice [1] (high fat diet, 1, 10 and 50 mg/kg/day oral once daily, vs vehicle) is recorded as “reductions in the extent of plaque”. Moreover, in the assay on ApoE-deficient mice [1] (50 mg/kg/day oral, p<0.03), the “reduction of plaque formation in the proximal aorta compared to vehicle” value is reported as ~40%. For the same compound, the “atherosclerotic lesions in the proximal aorta, aortic arch, thoracic and abdominal aorta (gross pathological score)” value in the assay with ApoE-deficient mice [2] (10 mg/kg/day or 50 mg/kg/day oral, vs vehicle) is “substantial reduction of atherosclerotic lesions”. Further, the “plaque burden in the proximal aorta and aortic arch compared to vehicle” value in the assay with ApoE-deficient mice [2] (10 and 50 mg/kg/day oral) is given as “statistically significant reductions in plaque burden”.
